System: TEAD responsive promoter element (8XGTIIC-Luciferase; YAP1-TEAD and TAZ-TEAD activity)
Assay: TEAD-Luciferase reporter assay
Assay type: cell-based
Conditions: Homo sapiens; luciferase activity in tumor cell lines with stable integration of the 8XGTIIC-Luciferase construct; 10 doses between 1 and 10000 nM, 48 hrs
Source text: TEAD-Luciferase Reporter Assay
Luciferase-based gene reporter assays were used, employing the TEAD responsive promoter element that are stably integrated to different human tumor cell lines in order to monitor YAP1-TEAD and TAZ-TEAD activity and to study YAP1/TAZ-TEAD activity modulation by small molecule compounds. Luciferase-based gene reporter assays employing the GAPDH promoter element and stably integrated to different human tumor cell lines are used as counter screen control cell lines.
Tumor cell lines with stable integration of the 8XGTIIC-Luciferase construct (Dupont et al., Nature 2011) or the GAPDH-Luciferase control plasmid, are seeded in culture medium in 96-well plates at a density of 8000 cells/well. Following an overnight incubation in a 37° C., 5% CO2 growth chamber, cells are treated with compounds described above at 10 doses ranging between 1 and 10000 nM for 48 hrs. After compound incubation, cells are lysed with Bright-Glo Luciferase Assay System (Promega E2620) and luciferase activity is measured using a luminescent plate reader.
The inhibitory activity of the compounds with respect to luciferase activity is given by the concentration which inhibits 50% of activity of non-treated cells. IC50s are determined with a nonlinear regression model on XLfit software analysis (IDBS, UK).

SMILES	IC50
C=CC(=O)Nc1ccc2c(ccn2[C@H]2CC[C@H](C(F)(F)F)CC2)c1 [Example 33, Trans-N-[1-[4-(trifluoromethyl)cyclohexyl]indol-5-yl]acrylamide]	41 nM
C=CC(=O)Nc1ccc2ccn(-c3cccc(C(F)(F)F)c3)c2c1 [Example 62, N-(1-(3-(trifluoromethyl)phenyl)-1H-indol-6-yl)acrylamide]	64 nM
C=CC(=O)Nc1ccc2c(ccn2-c2ccc(C(F)(F)F)cn2)c1 [Example 46, N-(1-(5-(trifluoromethyl)pyridin-2-yl)-1H-indol-5-yl)acrylamide]	> 10000 nM
C=CC(=O)Nc1cc(Cl)c2c(ccn2-c2ccc(C(F)(F)F)cc2)c1 [Example 81, N-(7-chloro-1-(4-(trifluoromethyl)phenyl)-1H-indol-5-yl)acrylamide]	68 nM
C=CC(=O)Nc1ccc2c(ccn2C2CCN(CC(F)(F)F)CC2)c1 [Example 38, N-(1-(1-(2,2,2-trifluoroethyl)piperidin-4-yl)-1H-indol-5-yl)acrylamide]	1500 nM
C=CC(=O)Nc1ccc2c(ccn2Cc2cc(F)cc(F)c2)c1 [Example 52, N-(1-(3,5-difluorobenzyl)-1H-indol-5-yl)acrylamide]	41 nM
C=CC(=O)Nc1ccc2c(ccn2-c2ccc(C(F)(F)F)cc2)c1 [Example 44, N-(1-(4-(trifluoromethyl)phenyl)-1H-indol-5-yl)acrylamide]	8 nM
C=CC(=O)Nc1ccc2c(ccn2CC2CCC(F)(F)C2)c1 (stereo not drawn) [Example 29, N-(1-((3,3-difluorocyclopentyl)methyl)-1H-indol-5-yl)acrylamide]	43 nM
C=CC(=O)Nc1cc2ccn(Cc3cccc(C(F)(F)F)c3)c2cc1F [Example 80, N-(6-fluoro-1-(3-(trifluoromethyl)benzyl)-1H-indol-5-yl)acrylamide]	18 nM
C=CC(=O)Nc1ccc2c(ccn2CC2CCC(F)C2)c1 (stereo not drawn) [Example 26, N-(1-((3-fluorocyclopentyl)methyl)-1H-indol-5-yl)acrylamide]	357 nM
C=CC(=O)Nc1ccc2c(ccn2Cc2ccc(-c3ccc(C(F)(F)F)cc3)cc2)c1 [Example 32, N-(1-((4′-(trifluoromethyl)-[1,1′-biphenyl]-4-yl)methyl)-1H-indol-5-yl)acrylamide]	7840 nM
C=CC(=O)Nc1ccc2c(ccn2-c2ccc(C(F)(F)F)nc2)c1 [Example 45, N-(1-(6-(trifluoromethyl)pyridin-3-yl)-1H-indol-5-yl)acrylamide]	106 nM
C=CC(=O)Nc1ccc2c(ccn2Cc2cc(C(F)(F)F)ccc2F)c1 [Example 10, N-(1-(2-fluoro-5-(trifluoromethyl)benzyl)-1H-indol-5-yl)acrylamide]	7220 nM
C=CC(=O)Nc1ccc2c(ccn2CCN(C)CC(F)(F)F)c1 [Example 36, N-(1-(2-(methyl(2,2,2-trifluoroethyl)amino)ethyl)-1H-indol-5-yl)acrylamide]	4560 nM
C=CC(=O)Nc1ccc2c(c1)c(C(=O)OC)cn2Cc1cccc(C(F)(F)F)c1 [Example 61, methyl 5-acrylamido-1-(3-(trifluoromethyl)benzyl)-1H-indole-3-carboxylate]	41 nM
C=CC(=O)Nc1ccc2c(ccn2Cc2csc(C(F)(F)F)n2)c1 [Example 57, N-(1-((2-(trifluoromethyl)thiazol-4-yl)methyl)-1H-indol-5-yl)acrylamide]	191 nM
C/C=C/C(=O)Nc1ccc2c(ccn2-c2ccc(C(F)(F)F)cc2)c1 [Example 75, (E)-N-(1-(4-(trifluoromethyl)phenyl)-1H-indol-5-yl)but-2-enamide]	458 nM
C=CC(=O)Nc1ccc2c(ccn2-c2ccc(F)c(F)c2)c1 [Example 49, N-(1-(3,4-difluorophenyl)-1H-indol-5-yl)acrylamide]	> 10000 nM
C=CC(=O)Nc1ccc2c(ccn2Cc2cccc(C)c2)c1 [Example 17, N-(1-(3-methylbenzyl)-1H-indol-5-yl)acrylamide]	54 nM
C=CC(=O)Nc1ccc2c(ccn2Cc2cccc(C#N)c2)c1 [Example 54, N-(1-(3-cyanobenzyl)-1H-indol-5-yl)acrylamide]	388 nM
C=CC(=O)Nc1ccc2c(ccn2-c2ccc(C(F)(F)F)cc2C)c1 [Example 65, N-(1-(2-methyl-4-(trifluoromethyl)phenyl)-1H-indol-5-yl)acrylamide]	59 nM
C=CC(=O)Nc1ccc2c(ccn2Cc2ccc(F)c(F)c2)c1 [Example 53, N-(1-(3,4-difluorobenzyl)-1H-indol-5-yl)acrylamide]	33 nM

Continued, values first:

IC50	SMILES
7760 nM	CN(C)C/C=C/C(=O)Nc1cccc2c1ccn2Cc1cccc(C(F)(F)F)c1 [Example 20, (E)-4-(dimethylamino)-N-(1-(3-(trifluoromethyl)benzyl)-1H-indol-4-yl)but-2-enamide]
85 nM	C=CC(=O)Nc1cc(Cl)c2c(ccn2Cc2cccc(C(F)(F)F)c2)c1 [Example 79, N-(7-chloro-1-(3-(trifluoromethyl)benzyl)-1H-indol-5-yl)acrylamide]
25 nM	C=CC(=O)Nc1ccc2c(ccn2CCCCC(F)(F)F)c1 [Example 3, N-(1-(5,5,5-trifluoropentyl)-1H-indol-5-yl)acrylamide]
296 nM	C=CC(=O)Nc1ccc2c(ccn2Cc2cccc(OC(F)(F)F)c2)c1 [Example 8, N-(1-(3-(trifluoromethoxy)benzyl)-1H-indol-5-yl)acrylamide]
24 nM	C=CC(=O)N(C)c1ccc2c(c1)cc(C)n2-c1ccc(C(F)(F)F)cc1 [Example 71, N-methyl-N-[2-methyl-1-[4-(trifluoromethyl)phenyl]indol-5-yl]acrylamide]
61 nM	C=CC(=O)Nc1ccc2c(ccn2Cc2cccc(S(F)(F)(F)(F)F)c2)c1 [Example 5, N-(1-(3-(pentafluoro-λ6-sulfanyl)benzyl)-1H-indol-5-yl)acrylamide]
244 nM	C=CC(=O)Nc1cc2ccn(-c3ccc(C(F)(F)F)cc3)c2cc1F [Example 73, N-(6-fluoro-1-(4-(trifluoromethyl)phenyl)-1H-indol-5-yl)acrylamide]
558 nM	C=CC(=O)Nc1ccc2c(ccn2C(C)c2cccc(C(F)(F)F)c2)c1 (stereo not drawn) [Example 4, N-(1-(1-(3-(trifluoromethyl)phenyl)ethyl)-1H-indol-5-yl)acrylamide]
141 nM	C=CC(=O)Nc1cc2ccn(Cc3cccc(C(F)(F)F)c3)c2cc1Cl [Example 78, N-(6-chloro-1-(3-(trifluoromethyl)benzyl)-1H-indol-5-yl)acrylamide]
1400 nM	C=CC(=O)Nc1ccc2c(ccn2CC2CCC(F)(F)CC2)c1 [Example 22, N-(1-((4,4-difluorocyclohexyl)methyl)-1H-indol-5-yl)acrylamide]
1850 nM	C=CC(=O)Nc1ccc2c(ccn2-c2cc(F)cc(F)c2)c1 [Example 66, N-(1-(3,5-difluorophenyl)-1H-indol-5-yl)acrylamide]
≥ 10000 nM	C=CC(=O)Nc1ccc2c(ccn2CCCN2CCC(F)(F)C2)c1 [Example 41, N-(1-(3-(3,3-difluoropyrrolidin-1-yl)propyl)-1H-indol-5-yl)acrylamide]
620 nM	C=CC(=O)Nc1ccc2c(c1)c(C(N)=O)cn2-c1ccc(C(F)(F)F)cc1 [Example 84, 5-Acrylamido-1-(4-(trifluoromethyl)phenyl)-1H-indole-3-carboxamide]
369 nM	C=CC(=O)Nc1ccc2c(ccn2CC2CCOCC2)c1 [Example 23, N-(1-((tetrahydro-2H-pyran-4-yl)methyl)-1H-indol-5-yl)acrylamide]
≥ 10000 nM	C=CC(=O)Nc1ccc2c(ccn2CC2CC(C(F)(F)F)C2)c1 (stereo not drawn) [Example 28, N-(1-((3-(trifluoromethyl)cyclobutyl)methyl)-1H-indol-5-yl)acrylamide]
4040 nM	C=CC(=O)Nc1ccc2c(ccn2Cc2ccc(S(F)(F)(F)(F)F)cc2)c1 [Example 6, N-(1-(4-(pentafluoro-λ6-sulfanyl)benzyl)-1H-indol-5-yl)acrylamide]
15 nM	C=CC(=O)Nc1ccc2c(c1)c(COC)cn2-c1ccc(C(F)(F)F)cc1 [Example 72, N-(3-(methoxymethyl)-1-(4-(trifluoromethyl)phenyl)-1H-indol-5-yl)acrylamide]
